According to ChEMBL document CHEMBL3046824, “Synthesis and pharmacological evaluation of newer thiazolo [3,2-a] pyrimidines for anti-inflammatory and antinociceptive activity” (Med Chem Res, 2010):

Experiments:
Rattus norvegicus [1] = experiment: Anti-inflammatory activity in albino Rattus norvegicus (rat) assessed as inhibition of carrageenan-induced paw edema at 25 mg/kg, po administered 1 hr prior to carrageenan-challenge measured after 1 to 3 hr relative to control; type: functional
Mus musculus = experiment: Antinociceptive activity in albino Mus musculus (mouse) assessed as increase in latency for tail withdrawal at 20 mg/kg, po measured after 4 hr by thermal stimulus method relative to control; type: functional
[2] = Ulcerogenic activity in ip dosed fasted albino Rattus norvegicus (rat) measured after 8 hr; type: toxicity, organism-based; details: in vivo, read-out: UD50
Rattus norvegicus [3] = experiment: Anti-inflammatory activity in albino Rattus norvegicus (rat) assessed as inhibition of carrageenan-induced paw edema at 50 mg/kg, po administered 1 hr prior to carrageenan-challenge measured after 1 to 3 hr relative to control; type: functional
[4] = Toxicity in ip dosed albino Mus musculus (mouse) measured after 24 hr; type: organism-based; details: in vivo, read-out: ALD50
Rattus norvegicus [5] = experiment: Anti-inflammatory activity in albino Rattus norvegicus (rat) assessed as inhibition of carrageenan-induced paw edema at 100 mg/kg, po administered 1 hr prior to carrageenan-challenge measured after 1 to 3 hr relative to control; type: functional

| Structure (SMILES) | inhibition in vivo at 25 mg/kg (Rattus norvegicus [1]) [%] | Activity (Mus musculus) [%] | TD50 at 8 h [2] [mg/kg] | inhibition in vivo at 50 mg/kg (Rattus norvegicus [3]) [%] | LD50 at 24 h [4] [mg/kg] | inhibition in vivo at 100 mg/kg (Rattus norvegicus [5]) [%] |
| --- | --- | --- | --- | --- | --- | --- |
| CC1=C(C(=O)Nc2ccc(F)cc2)C(c2ccc(Cl)cc2)n2c(s/c(=C/c3ccccc3Cl)c2=O)=N1 (centres undefined) | 16 | 63 | – | – | – | – |
| CC1=C(C(=O)Nc2ccc(F)cc2)C(c2ccc(Cl)cc2)n2c(s/c(=C/c3ccc(Cl)cc3Cl)c2=O)=N1 (centres undefined) | 14 | 46 | – | – | – | – |
| CC1=C(C(=O)Nc2ccc(F)cc2)C(c2ccc(Cl)cc2)n2c(s/c(=C/c3ccccc3[N+](=O)[O-])c2=O)=N1 (centres undefined) | 16 | 82 | – | – | – | – |
| CC1=C(C(=O)Nc2ccc(F)cc2)C(c2ccc(F)cc2)n2c(s/c(=C/c3ccc([N+](=O)[O-])cc3)c2=O)=N1 (centres undefined) | 30 | 121 | – | – | – | – |
| CC1=C(C(=O)Nc2ccc(F)cc2)C(c2ccc(F)cc2)n2c(s/c(=C/c3ccc(Cl)cc3)c2=O)=N1 (centres undefined) | 47 | 189 | 175 | 50 | > 1000 | 78 |
| CC1=C(C(=O)Nc2ccc(F)cc2)C(c2ccccc2[N+](=O)[O-])n2c(s/c(=C/c3ccccc3Cl)c2=O)=N1 (centres undefined) | 12 | 72 | – | – | – | – |
| CC1=C(C(=O)Nc2ccc(F)cc2)C(c2ccccc2[N+](=O)[O-])n2c(s/c(=C/c3ccc(Br)cc3)c2=O)=N1 (centres undefined) | 16 | 100 | – | – | – | – |
| CC1=C(C(=O)Nc2ccc(F)cc2)C(c2ccc(F)cc2)n2c(s/c(=C/c3ccccc3Cl)c2=O)=N1 (centres undefined) | 19 | 119 | – | – | – | – |
| CC1=C(C(=O)Nc2ccc(F)cc2)C(c2ccc(Cl)cc2)n2c(s/c(=C/c3ccc(F)cc3)c2=O)=N1 (centres undefined) | 44 | 172 | 240 | 60 | > 1000 | 80 |
| CC1=C(C(=O)Nc2ccc(F)cc2)C(c2ccc(Cl)cc2)n2c(s/c(=C/c3ccc(Br)cc3)c2=O)=N1 (centres undefined) | 35 | 76 | – | – | – | – |
| COc1ccc(/C=c2/sc3n(c2=O)C(c2ccc(Br)cc2)C(C(=O)Nc2ccc(F)cc2)=C(C)N=3)cc1OC (centres undefined) | 8 | 23 | – | – | – | – |
| CC1=C(C(=O)Nc2ccc(F)cc2)C(c2ccc(Br)cc2)n2c(s/c(=C/c3ccc(Cl)cc3Cl)c2=O)=N1 (centres undefined) | 14 | 31 | – | – | – | – |
| CC1=C(C(=O)Nc2ccc(F)cc2)C(c2ccc(Br)cc2)n2c(s/c(=C/c3ccccc3)c2=O)=N1 (centres undefined) | 5 | 76 | – | – | – | – |
| CC1=C(C(=O)Nc2ccc(F)cc2)C(c2ccc(Br)cc2)n2c(s/c(=C/c3ccc(Cl)cc3)c2=O)=N1 (centres undefined) | 25 | 104 | – | – | – | – |
| CC1=C(C(=O)Nc2ccc(F)cc2)C(c2ccc(Br)cc2)n2c(s/c(=C/c3ccc(C)cc3)c2=O)=N1 (centres undefined) | 11 | 72 | – | – | – | – |
| CC1=C(C(=O)Nc2ccc(F)cc2)C(c2ccc([N+](=O)[O-])cc2)n2c(s/c(=C/c3ccc(Cl)cc3Cl)c2=O)=N1 (centres undefined) | 17 | 121 | – | – | – | – |
| CC1=C(C(=O)Nc2ccc(F)cc2)C(c2ccc([N+](=O)[O-])cc2)n2c(s/c(=C/c3ccc(Cl)cc3)c2=O)=N1 (centres undefined) | 23 | 104 | – | – | – | – |
| COc1ccc(/C=c2/sc3n(c2=O)C(c2ccc([N+](=O)[O-])cc2)C(C(=O)Nc2ccc(F)cc2)=C(C)N=3)cc1 (centres undefined) | 12 | 46 | – | – | – | – |
| CC1=C(C(=O)Nc2ccc(F)cc2)C(c2ccc([N+](=O)[O-])cc2)n2c(s/c(=C/c3ccccc3Cl)c2=O)=N1 (centres undefined) | 19 | 140 | – | – | – | – |
| CC1=C(C(=O)Nc2ccc(F)cc2)C(c2ccc([N+](=O)[O-])cc2)n2c(s/c(=C/c3ccccc3)c2=O)=N1 (centres undefined) | 7 | 93 | – | – | – | – |
| O=C(O)Cc1ccccc1Nc1c(Cl)cccc1Cl [DICLOFENAC] | – | 274 | – | – | – | – |
| CCCCC1C(=O)N(c2ccccc2)N(c2ccccc2)C1=O [PHENYLBUTAZONE] | 43 | – | 70.2 | 55 | > 1000 | 70 |
